Test results taken from ChEMBL document CHEMBL5465560, “Selectivity Literature for EUbOPEN Chemogenomic Library” (2024).
Positions count from the first letter of the chain named.

Key:
Details in all cases: at 1 µM
[1] = tested on: T1, Receptor-type tyrosine-protein kinase FLT3 (Homo sapiens), P36888 [D835H]; test: (§1) Selectivity interaction (KinomeScan (DiscoverX)) EUB0001619a FLT3
T1 sequence (whole entry): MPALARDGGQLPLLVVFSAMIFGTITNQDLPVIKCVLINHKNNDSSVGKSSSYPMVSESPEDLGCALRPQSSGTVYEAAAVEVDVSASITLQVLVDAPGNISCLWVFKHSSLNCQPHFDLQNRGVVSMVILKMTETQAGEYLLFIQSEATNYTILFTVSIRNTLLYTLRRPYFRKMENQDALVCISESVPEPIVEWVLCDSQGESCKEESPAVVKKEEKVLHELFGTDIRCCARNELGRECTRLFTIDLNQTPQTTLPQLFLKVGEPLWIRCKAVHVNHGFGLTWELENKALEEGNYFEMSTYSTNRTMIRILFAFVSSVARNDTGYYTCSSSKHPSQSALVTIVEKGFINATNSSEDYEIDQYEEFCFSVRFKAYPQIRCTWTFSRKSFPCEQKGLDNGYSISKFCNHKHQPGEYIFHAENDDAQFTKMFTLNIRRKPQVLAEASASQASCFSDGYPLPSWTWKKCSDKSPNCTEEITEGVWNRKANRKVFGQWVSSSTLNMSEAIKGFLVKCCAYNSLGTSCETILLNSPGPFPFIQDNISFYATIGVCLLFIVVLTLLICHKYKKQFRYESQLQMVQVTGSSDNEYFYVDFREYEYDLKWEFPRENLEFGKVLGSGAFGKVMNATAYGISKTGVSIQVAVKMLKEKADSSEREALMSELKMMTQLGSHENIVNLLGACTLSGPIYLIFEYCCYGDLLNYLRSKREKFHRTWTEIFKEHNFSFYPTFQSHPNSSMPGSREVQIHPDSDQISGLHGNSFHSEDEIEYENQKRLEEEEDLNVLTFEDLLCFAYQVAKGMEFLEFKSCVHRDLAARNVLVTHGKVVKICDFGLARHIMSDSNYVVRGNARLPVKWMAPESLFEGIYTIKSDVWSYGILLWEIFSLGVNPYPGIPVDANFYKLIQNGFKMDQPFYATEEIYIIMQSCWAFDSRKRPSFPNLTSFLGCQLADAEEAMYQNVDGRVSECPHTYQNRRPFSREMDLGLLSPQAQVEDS

[2] = tested on: T2, Receptor-type tyrosine-protein kinase FLT3 (Homo sapiens), P36888 [D835Y]; test: as §1
T2 sequence (whole entry): T1 sequence (whole entry) with H835Y

[3] = tested on: T3, Receptor-type tyrosine-protein kinase FLT3 (Homo sapiens), P36888 [R834Q]; test: as §1
T3 sequence (whole entry): T1 sequence (whole entry) with R834Q, H835D

Which % of control [1] does the source give for N#Cc1cccc(-c2c[nH]c3ncnc(N4CCOCC4)c23)c1 here?
The % of control was 72%.

What about the % of control [2] of the same compound?
Its % of control is 65%.

And the % of control [3]?
The % of control was 93%.
